Our source for the solubility in water values is patent publication US8158830B1, “Integrated process for the preparation of tetraaminobenzene” (E. I. du Pont de Nemours and Company, priority 2007, dated 2012).

A short description of this data set: solubility of TAB.4HCl in water. It is filed as physicochemical. The note with it: water at 25° C. On the procedure: The reaction mixture containing the precipitated TAB salt is then cooled to about 5° C. to about 15° C. and stirred, then filtered. The TAB salt is then washed 44. It may be washed with deaerated aqueous acid, such as HCl (33%), and then optionally with deaerated ethanol or methanol to produce a wet cake material; the optional ethanol or methanol wash can then be recycled 48, 47, and a purge is drawn to prevent accumulation. Using an agitated filter unit during the wash procedures can allow for a reduction of the wash volumes. Under such circumstances, using small amounts of cold water (e.g. about 5° C.) instead of the aqueous acid would also be effective as the TAB salt would have lower solubility in the cold water than it would have in water at about room temperature (e.g. 25° C.). For example, the solubility of TAB.4HCl in water at 25° C. is about 15 wt %.

As to `Nc1cc(N)c(N)cc1N` [TAB.4HCl, 1,2,4,5-tetraminobenzene], the solubility in water entry was “about 15 wt %”.
